Patent US20220062240A1, “METHODS OF TREATING CANCER USING A CLK INHIBITOR” (BioSplice Therapeutics, Inc., priority 2018, published 2022)
pEC50: −log10 of the molar value. Read-outs that look alike come from different tables or passages of the source.

How the values were obtained:
CLK3 = CLK3 (Homo sapiens, UniProt P49761); test: CLK3 kinase activity assay (Z-lyte, Ser/Thr 18 peptide)
MCF7 = test: CellTiter-Glo Viability Assay, breast cancer; type: cell-based; details: Homo sapiens, 96 h; MCF7, breast cancer, four days; read-out: EC50
Description: (§1) Fifty-one human cancer cell lines (breast cancer (8 cell lines), colorectal cancer (6 cell lines), haematopoietic & lymphoid tumors (13 cell lines), liver cancer (3 cell lines), lung cancer (4 cell lines), ovarian cancer (4 cell lines), pancreatic cancer (8 cell lines), and prostate cancer (5 cell lines)) were tested to determine the effects of representative compounds of Formulas (I)-(XII) on cellular proliferation, as evaluated using the CellTiter-Glo® Viability Assay.
(§2) For the Cell Viability Assays, cells were plated at 300-3,000 cells/well in 384-well plates in their respective media containing 1% Penicillin-Streptomycin and incubated for four days at 37° C. and 5% CO2. Twenty-eight replicates of DMSO-treated cells served as controls and cells treated with compound were performed in duplicate.
(§3) After incubation, 10 μL of CellTiter-Glo® (Promega) was added to each well allowed to incubate for approximately 12 minutes. This reagent results in cell lysis and generation of a luminescent signal proportional to the amount of ATP present. The amount of ATP is directly proportional to the number of metabolically active, viable cells present in culture. The CellTiter-Glo® Assay generates a luminescent signal, produced by the luciferase reaction (Promega.com).
(§4) After incubation, the luminescence signal was read using an EnVision™ Multilabel Plate Reader (Perkin Elmer). Dose-response curves were generated and EC50 concentration values were calculated using Dotmatics' Studies Software (Bishops Stortford, UK).

DU4475 = test: CellTiter-Glo Viability Assay, breast cancer; type: cell-based; details: Homo sapiens, DU-4475, 96 h; DU4475, breast cancer, four days; read-out: EC50
Description: as §1, §2, §3, §4

T47D = test: CellTiter-Glo Viability Assay, breast cancer; type: cell-based; details: Homo sapiens, 96 h, breast cancer, four days, read-out: EC50
Description: as §1, §2, §3, §4

MDA-MB-231-Luc = test: CellTiter-Glo Viability Assay, breast cancer; type: cell-based; details: Homo sapiens, 96 h; MDA-MB-231-Luc, breast cancer, four days; read-out: EC50
Description: as §1, §2, §3, §4

BT-549 = test: CellTiter-Glo Viability Assay, breast cancer; type: cell-based; details: Homo sapiens, 96 h; BT-549, breast cancer, four days; read-out: EC50
Description: as §1, §2, §3, §4

HCC1599 = test: CellTiter-Glo Viability Assay, breast cancer; type: cell-based; details: Homo sapiens, 96 h; HCC1599, breast cancer, four days; read-out: EC50
Description: as §1, §2, §3, §4

CAMA1 = test: CellTiter-Glo Viability Assay, breast cancer; type: cell-based; details: Homo sapiens, CAMA-1, 96 h; CAMA1, breast cancer, four days; read-out: EC50
Description: as §1, §2, §3, §4

[1] = tested on: liver cancer (3 cell lines); test: CellTiter-Glo Viability Assay, liver cancer; type: cell-based; details: Homo sapiens, inhibition of cancer cell proliferation
Description: as §1, §2, §3, §4

CLK2 = target: T1, CLK2 (Homo sapiens, UniProt P49760); test: CLK2 kinase activity assay (Z-lyte, Ser/Thr 6 peptide); type: biochemical; details: recombinant CLK2 kinase, ATP 60 μM; read-out: EC50
T1 construct: purchased Thermo Fisher (Life Technologies), Z'-LYTE Kinase Assay Kits
Description: All reactions were performed in duplicate.

[2] = tested on: haematopoietic & lymphoid tumors (13 cell lines); test: CellTiter-Glo Viability Assay, haematopoietic & lymphoid tumors; type: cell-based; details: Homo sapiens, inhibition of cancer cell proliferation
Description: as §1, §2, §3, §4

[3] = tested on: pancreatic cancer (8 cell lines); test: CellTiter-Glo Viability Assay, pancreatic cancer; type: cell-based; details: Homo sapiens, inhibition of cancer cell proliferation
Description: as §1, §2, §3, §4

[4] = tested on: prostate cancer (5 cell lines); test: CellTiter-Glo Viability Assay, prostate cancer; type: cell-based; details: Homo sapiens
Description: as §1, §2, §3, §4

[5] = tested on: ovarian cancer (4 cell lines); test: CellTiter-Glo Viability Assay, ovarian cancer; type: cell-based; details: Homo sapiens, inhibition of cancer cell proliferation
Description: as §1, §2, §3, §4

[6] = tested on: colorectal cancer (6 cell lines); test: CellTiter-Glo Viability Assay, colorectal cancer; type: cell-based; details: Homo sapiens, inhibition of cancer cell proliferation
Description: as §1, §2, §3, §4

all 50 cell lines = test: CellTiter-Glo Viability Assay, average across all cell lines; type: cell-based; details: Homo sapiens; across all 50 cell lines; read-out: average EC50 for inhibition of cancer cell proliferation
Description: as §1, §2, §3, §4

[7] = tested on: lung cancer (4 cell lines); test: CellTiter-Glo Viability Assay, lung cancer; type: cell-based; details: Homo sapiens, inhibition of cancer cell proliferation
Description: as §1, §2, §3, §4

T1 sequence (P49760 whole entry): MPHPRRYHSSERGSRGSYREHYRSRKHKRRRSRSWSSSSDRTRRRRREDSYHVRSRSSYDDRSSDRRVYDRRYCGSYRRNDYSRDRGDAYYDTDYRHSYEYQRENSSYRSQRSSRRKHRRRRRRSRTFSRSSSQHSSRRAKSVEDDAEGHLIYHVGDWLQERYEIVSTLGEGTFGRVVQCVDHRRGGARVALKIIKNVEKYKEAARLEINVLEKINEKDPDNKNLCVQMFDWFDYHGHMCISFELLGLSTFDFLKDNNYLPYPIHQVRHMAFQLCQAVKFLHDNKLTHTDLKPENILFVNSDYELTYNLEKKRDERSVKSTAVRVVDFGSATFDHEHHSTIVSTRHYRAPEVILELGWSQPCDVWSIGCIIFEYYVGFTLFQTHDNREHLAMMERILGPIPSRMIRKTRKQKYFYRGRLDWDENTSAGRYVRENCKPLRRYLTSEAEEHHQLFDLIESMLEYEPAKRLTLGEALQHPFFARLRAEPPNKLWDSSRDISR
Chain of CLK3 (P49761 whole entry): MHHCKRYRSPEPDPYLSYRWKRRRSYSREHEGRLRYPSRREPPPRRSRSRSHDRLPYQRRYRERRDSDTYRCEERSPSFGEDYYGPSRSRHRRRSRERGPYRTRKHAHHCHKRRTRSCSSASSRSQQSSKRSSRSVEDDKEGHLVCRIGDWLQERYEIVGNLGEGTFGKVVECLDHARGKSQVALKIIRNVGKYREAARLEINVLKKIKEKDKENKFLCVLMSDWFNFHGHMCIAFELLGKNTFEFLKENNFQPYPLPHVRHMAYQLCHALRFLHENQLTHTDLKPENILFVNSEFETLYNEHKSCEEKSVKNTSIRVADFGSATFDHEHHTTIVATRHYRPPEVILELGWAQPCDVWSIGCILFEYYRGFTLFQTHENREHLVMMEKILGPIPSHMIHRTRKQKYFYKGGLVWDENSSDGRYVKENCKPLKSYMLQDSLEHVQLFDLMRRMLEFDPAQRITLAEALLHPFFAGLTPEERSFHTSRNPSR

pEC50 (CLK3): 7.57
pEC50 (MCF7): 5.59
pEC50 (DU4475): 6.19
pEC50 (T47D): 5.84
pEC50 (MDA-MB-231-Luc): 5.96
pEC50 (BT-549): 5.91
pEC50 (HCC1599): 5.95
pEC50 (CAMA1): 5.92
pEC50 ([1]; SNU-398, SNU398 cell line, read-out: Liver cancer, EC50 SNU398): 6.63
pEC50 ([1]; HEPG2 cell line, read-out: Liver cancer, EC50 HEPG2): 6.13
pEC50 ([1]; PLC/PRF/5 cell line, read-out: Liver cancer, EC50 PLC/PRF/5): 5.72
pEC50 (CLK2): 8.54
EC50 ([2]; DND41, DND-41 cell line, read-out: Haematopoietic & Lymphoid tumors, EC50 (μM) DND-41): 0.914 µM
EC50 ([2]; MV4-11, MV-4-11 cell line, read-out: Haematopoietic & Lymphoid tumors, EC50 (μM) MV-4-11): 0.316 µM
EC50 ([2]; Rec1, REC-1 cell line, read-out: Haematopoietic & Lymphoid tumors, EC50 (μM) REC-1): 0.23 µM
EC50 ([2]; SU-DHL-4, SUDHL4 cell line, read-out: Haematopoietic & Lymphoid tumors, EC50 (μM) SUDHL4): 0.972 µM
EC50 ([2]; HL-60 cell line, read-out: Haematopoietic & Lymphoid tumors, EC50 (μM) HL-60): 2.59 µM
EC50 ([2]; JM1 cell line, read-out: Haematopoietic & Lymphoid tumors, EC50 (μM) JM1): 0.216 µM
EC50 ([2]; JURKAT, Clone E6-1 cell line, read-out: Haematopoietic & Lymphoid tumors, EC50 (μM) JURKAT, Clone E6-1): 1.62 µM
EC50 ([2]; JeKo-1 cell line, read-out: Haematopoietic & Lymphoid tumors, EC50 (μM) JeKo-1): 0.319 µM
EC50 ([2]; KASUMI-1 cell line, read-out: Haematopoietic & Lymphoid tumors, EC50 (μM) KASUMI-1): 0.842 µM
EC50 ([2]; Loucy cell line, read-out: Haematopoietic & Lymphoid tumors, EC50 (μM) Loucy): 0.78 µM
EC50 ([2]; MOLT-4 cell line, read-out: Haematopoietic & Lymphoid tumors, EC50 (μM) MOLT-4): 0.965 µM
EC50 ([2]; TF-1 cell line, read-out: Haematopoietic & Lymphoid tumors, EC50 (μM) TF-1): 1.31 µM
EC50 ([2]; TOLEDO cell line, read-out: Haematopoietic & Lymphoid tumors, EC50 (μM) TOLEDO): 0.3 µM
pEC50 ([3]; BXPC-3, BxPC3 cell line, read-out: Pancreatic cancer, EC50 BxPC3): 5.68
pEC50 ([3]; CAPAN-1, Capan1 cell line, read-out: Pancreatic cancer, EC50 Capan1): 5.95
pEC50 ([3]; Capan-2, Capan2 cell line, read-out: Pancreatic cancer, EC50 Capan2): 5.89
pEC50 ([3]; MIA PaCa-2 cell line, read-out: Pancreatic cancer, EC50 MIA PaCa-2): 6.34
pEC50 ([3]; PANC 05.04 cell line, read-out: Pancreatic cancer, EC50 PANC 05.04): 5.92
pEC50 ([3]; PANC-1 cell line, read-out: Pancreatic cancer, EC50 PANC-1): 5.74
pEC50 ([3]; UPAFII cell line, read-out: Pancreatic cancer, EC50 UPAFII): 6.23
pEC50 ([4]; DU-145, read-out: Prostate cancer EC50 Du-145): 5.98
pEC50 ([4]; PC-3, PC3 cell line, inhibition of cancer cell proliferation, read-out: Prostate cancer EC50 PC3): 6.07
pEC50 ([4]; 22Rv1 cell line, inhibition of cancer cell proliferation, read-out: Prostate cancer EC50 22Rv1): 6.07
pEC50 ([4]; LNCap clone FGC cell line, inhibition of cancer cell proliferation, read-out: Prostate cancer EC50 LNCap clone FGC): 5.81
pEC50 ([4]; VCaP (Sigma) cell line, inhibition of cancer cell proliferation, read-out: Prostate cancer EC50 VCaP (Sigma)): 5.46
EC50 ([5]; PA-1, PA1 cell line, read-out: Ovarian cancer, EC50 (μM) PA1): 0.643 µM
EC50 ([5]; TOV112D, TOV-112D cell line, read-out: Ovarian cancer, EC50 (μM) TOV-112D): 0.61 µM
EC50 ([5]; OV-90 cell line, read-out: Ovarian cancer, EC50 (μM) OV-90): 1.64 µM
EC50 ([5]; OVCAR-3 cell line, read-out: Ovarian cancer, EC50 (μM) OVCAR-3): 0.446 µM
EC50 ([6]; HCT-116, HCT116 cell line, read-out: Colorectal cancer, EC50 (μM) HCT116): 0.396 µM
EC50 ([6]; HT-29, HT29 cell line, read-out: Colorectal cancer, EC50 (μM) HT29): 1.13 µM
EC50 ([6]; SW-620, SW620 cell line, read-out: Colorectal cancer, EC50 (μM) SW620): 0.26 µM
EC50 ([6]; DLD-1 cell line, read-out: Colorectal cancer, EC50 (μM) DLD-1): 0.658 µM
EC50 ([6]; SW48 cell line, read-out: Colorectal cancer, EC50 (μM) SW48): 0.185 µM
EC50 ([6]; SW480 cell line, read-out: Colorectal cancer, EC50 (μM) SW480): 0.551 µM
EC50 ([7]; A-427, A427 cell line, read-out: Lung cancer, EC50 (μM) A427): 0.856 µM
EC50 ([7]; HCC78, HCC-78 cell line, read-out: Lung cancer, EC50 (μM) HCC-78): 1.47 µM
EC50 ([7]; NCI-H460 cell line, read-out: Lung cancer, EC50 (μM) NCI-H460): 1.26 µM
EC50 ([7]; NCI-H522 cell line, read-out: Lung cancer, EC50 (μM) NCI-H522): 0.553 µM
Structure (SMILES): CN1CCN(c2cc(C(=O)Nc3cc4cc(-c5nnc(N(C)C)s5)ccc4cn3)ccn2)CC1 [Compound 84]
pEC50 (all 50 cell lines): 5.98
